ChEMBL document CHEMBL1151784, “Antibiotic evaluation and in vivo analysis of alkynyl Coenzyme A antimetabolites in Escherichia coli” (2008)
≈ marks a conversion by molar mass, not a printed value.

Assays:
Format in all cases: functional
Details in all cases: K12, 24 h
[1] = test system: Escherichia coli; test: Antibacterial activity against Escherichia coli K12 in tryptone broth after 24 hrs by broth dilution method
[2] = test system: Escherichia coli; test: Antibacterial activity against Escherichia coli K12 in M9 minimal medium after 24 hrs by broth dilution method in presence of pantothenate
[3] = test system: Escherichia coli; test: Antibacterial activity against Escherichia coli K12 in M9 minimal medium after 24 hrs by broth dilution method
[4] = test system: Escherichia coli; test: Antibacterial activity against Escherichia coli K12 in M9 minimal medium after 24 hrs by broth dilution method in presence of beta-alanine

Row | SMILES | MIC [1] | MIC [2] | MIC [3] | MIC [4]
1 | C#CC(=O)NCCNC(=O)CCNC(=O)[C@H](O)C(C)(C)CO | > 500 µM |  | > 500 µM | 
2 | CCC(=O)OCCNC(=O)CCNC(=O)[C@H](O)C(C)(C)CO | > 500 µM |  | 500 µM (≈ 159 µg/mL) | 
3 | CCOC(=O)NCCNC(=O)CCNC(=O)[C@H](O)C(C)(C)CO | > 500 µM |  | > 500 µM | 
4 | C=CC(=O)NCCNC(=O)CCNC(=O)[C@H](O)C(C)(C)CO | > 500 µM |  | 500 µM (≈ 158 µg/mL) | 
5 | CCC(=O)NCCNC(=O)CCNC(=O)[C@H](O)C(C)(C)CO | > 500 µM |  | > 500 µM | 
6 | C=CCNC(=O)CCNC(=O)[C@H](O)C(C)(C)CO | > 500 µM | 250 µM | 3 µM (≈ 0.775 µg/mL) | 125 µM
7 | C#CCNC(=O)[C@H](O)C(C)(C)CO | > 500 µM |  | 500 µM (≈ 92.6 µg/mL) | 

Results, then the compound that gave them:

Row | MIC [1] | MIC [2] | MIC [3] | MIC [4] | SMILES
8 | > 500 µM | > 500 µM | 7.5 µM (≈ 2.03 µg/mL) | > 500 µM | C#CCCNC(=O)CCNC(=O)[C@H](O)C(C)(C)CO
9 | 50 µM (≈ 14.4 µg/mL) | 500 µM | 6 µM (≈ 1.73 µg/mL) | 250 µM | CCCCCNC(=O)CCNC(=O)[C@H](O)C(C)(C)CO
10 | > 500 µM | > 500 µM | 15 µM (≈ 4.27 µg/mL) | > 500 µM | C#CCCCNC(=O)CCNC(=O)[C@H](O)C(C)(C)CO
11 | > 500 µM | > 500 µM | 4 µM (≈ 1.03 µg/mL) | > 500 µM | C#CCNC(=O)CCNC(=O)[C@H](O)C(C)(C)CO
12 | 500 µM (≈ 130 µg/mL) | 500 µM | 1 µM (≈ 0.26 µg/mL) | 250 µM | CCCNC(=O)CCNC(=O)[C@H](O)C(C)(C)CO
13 | > 500 µM |  | > 500 µM |  | CC(C)(CO)[C@@H](O)C(=O)NCCC(=O)NCCN=[N+]=[N-]
14 | > 500 µM |  | 500 µM (≈ 149 µg/mL) |  | C#CCCCCNC(=O)CCNC(=O)[C@H](O)C(C)(C)CO
15 | > 500 µM |  | > 500 µM |  | C#CCCC(=O)NCCNC(=O)CCNC(=O)[C@H](O)C(C)(C)CO
